Columns and labels:
T47D breast cancer cells = test: cancer cell migration, invasion assay (Platypus/Oris system); assay type: cell-based, human; conditions: FIG. 140
Procedure: We then tested an expanded panel of agents, including agents known to inhibit cancer growth or migration (FIG. 17) (Horm et al., 2012; Meng & Yue, 2014; Zhen et al., 2014), which is characteristic of aggressive or metastatic cancers. We also synthesized a series of novel small molecules, tested them in the stem cell drug screening assay, and then synthesized analogs of the best hits. These small molecules are pictured in FIGS. 18-27. Both the known compounds and the novel compounds were tested in the stem cell drug screening assay. The effects of the small molecules on naïve versus primed state stem cells are shown in the photographs of FIGS. 29-72. The small molecules pictured in FIGS. 17-27 and the biologicals were also tested in a cancer cell migration assay. A structure activity relationship table is seen in FIG. 28. Potent cancer cell migration is characteristic of cancer cell invasion of other tissues and of metastasis. Typical migration assays involve coating a cell culture plate with fibronectin, collagen or the like, plating cancer cells and making a scar across through the cells and measuring the time it takes for the cancer cells to invade the void space. An alternative approach that gives more reliable data is the Platypus System which is a special multi-well cell culture plate with a juxtaposed set of plugs that block off a circle in the center of each well. Cancer cells are plated while the plugs are in place, then they are removed after the cells attach to the plate surface. […] A bar graph summarizing the results of the known anti-migration compounds compared to the anti-MUC1* Fab E6 and the first few small molecules synthesized is shown in FIG. 73. The effect of two novel small molecules MN1186 and MN1194, compared to the known anti-migration molecule SU11274, is shown in FIG. 75A-75U. FIG. 75V is a graph showing the measured inhibition of cancer cell migration at time 0, 24 hours or 48 hours for a number of compounds. […] FIG. 75X is a graph showing how IC50's of the small molecules of the invention were measured and calculated.
Percent inhibition of cancer cell migration was performed in a wound healing assay. The Percent area that the invading cancer cells occupied, in the presence of a drug candidate compared to the controls, was quantified by Image J cell software which enables cell counting from photographs. IC50's were calculated by performing migration experiments at several compound concentrations and then applying Hill's equation. Inhibition of cancer cell proliferation was quantified by automated cell counting in the presence or absence of a drug candidate. Here, the potency of the drug candidate was simply scored 4 for the highest degree of inhibition and 0 for the lowest. […] The effect of each drug candidate was scored 0-4, with 4 being the highest in inhibiting cell proliferation (FIG. 28).
(§1) For the cancer cell migration experiment cancer cells were plated at varying densities into an Oris Cell Migration Assay Collagen-1 coated 96-well plate (Platypus Technologies LLC, Madison, Wis.). The Collagen-1 coated 96-well plate incorporates a specific vacuum plug which attaches to the bottom of each well, creating an area in which the cells cannot grow into. Once the cells have been plated at high densities into each well, they are allotted an 18-24 hour time period to attach to the bottom of the wells. Post-24 hour plugs are removed from the plate and then small molecule analogs are added to the wells. Images are taken of each well and represent time 0 (T=0) for each well. Images are taken of the wells at the 24, 48, 72, 96 and 120 hour time points. Data analysis is conducted using the images taken at these specific time point. Images are imported into ImageJ (Rasband, W. S., ImageJ, U. S. National Institutes of Health, Bethesda, Md., USA, http://imagej.nih.gov/ij/, 1997-2016.) and the area remaining free of cells is calculated. […]

[1] = tested on: PC-3 prostate cancer cells; test: cancer cell migration assay with Fabs and N-10 peptide; assay type: cell-based; conditions: FIG. 140
Procedure: (§2) The cancer sub-types that were tested were CHL-1 melanoma (MUC1*^+/NME7^+/NME7-X1^+), A2058 melanoma (MUC1*^+/NME7AB^+/NME7-X1^++), SK-OV-3 ovarian cancer (MUC1*^+/NME7^+/NME7-X1^+), A549 lung cancer (MUC1*^LO), T47D breast cancer (MUC1*^+++/NME7AB^+++/NME7-X1^+++), DU145 (MUC1*^++/NME7AB^+++/NME7-X1^+++) prostate cancer and PC-3 (MUC1*^−/NME7AB^+++/NME7-X1^+++) prostate cancer cells.
as §1, with “Data analysis is conducted using the images taken at these specific time point.” left out

[2] = tested on: DU145 prostate cancer cells; test: as above; assay type: cell-based; conditions: FIG. 140
Procedure: as §2
as §1, with “Data analysis is conducted using the images taken at these specific time point.” left out

[3] = tested on: MUC1* extracellular domain - NME1 dimers / NME7AB interaction; test: direct binding (gold nanoparticle) assay of MUC1*-NME interaction; design: species or system human; conditions: previously shown
Description: WO2009/042815 discloses that in a direct binding assay a series of carboline molecules inhibited the interaction between the extracellular domain of MUC1* and NME proteins, especially NME1 dimers and NME7AB. […] We tested a panel of ten small molecules, including three carbolines (FIG. 1), and biologicals for their ability to inhibit naïve stem cell pluripotency or growth compared to primed state stem cells.
Most of the novel compounds of the invention are carbolines or carboline-like molecules. […] However, in our nanoparticle assay, we can only determine that a compound disrupts the interaction between MUC1* extracellular domain peptide and NME1 dimers or NME7AB. We cannot tell if the compound does so by binding to MUC1* or its ligand. Recall that our compound hits are first identified in the stem cell drug screening assay for their ability to inhibit stem cell pluripotency or proliferation. […]
Recall that we had previously shown that some carbolines inhibited the binding of ligands NME1 or NME7AB to the extracellular domain of the MUC1* growth factor receptor. The assay we used was a gold nanoparticle assay that only gives a readout when the targeted interaction is disrupted, so it could not determine whether the carboloines disrupted binding of MUC1* to its ligands by binding to the ligand, NME7AB, or to MUC1*. […]

N-10 peptide: truncated MUC1* extracellular domain peptide QFNQYKTEAASRYNLTISDVSVSDVPFPFSAQSGA (SEQ ID NO:4) (N-10 peptide of PSMGFR in which ten amino acids at the N-terminus has been removed)
inhibition of migration of T47D cells by Fabs and peptide (T47D breast cancer cells): inhibited migration | inhibition of migration of PC-3 cells by Fabs and peptide [1]: only the N-10 peptide inhibited migration | inhibition of migration of DU145 prostate cancer cells by Fabs and peptide [2]: inhibited migration | competitive inhibition of NME ligand binding to MUC1* extracellular domain [3]: inhibits their binding to their cognate receptors including the MUC1* extracellular domain

Source: US11931347B2, “Method of screening for agents for differentiating stem cells” (MINERVA BIOTECHNOLOGIES CORPORATION, priority 2015, dated 2024)
